Data reported in patent publication US8846012B2, “Melanin production inhibitor” (Pola Chemical Industries Inc., priority 2008, dated 2014).
Values after ≈ are worked out from the molar mass of the structure shown. Read-outs that look alike come from different tables or passages of the source. Values belong to the compound of their own block, whether it stands above or below them.

Columns and labels:
[1] = tested on: Trichopyton mentagrophytes (ATCC18748); experiment: Measurement of antimycotic activity (Alamar Blue growth inhibition of dermatophytes); type: cell-based; conditions: for growth inhibitory effect on Trichopyton mentagrophytes (in words): added at a concentration of 100 μg/mL; for MIC80: read-out: MIC80 Concentration; for inhibition at 0.1563 µg/mL / inhibition at 0.3125 µg/mL / inhibition at 0.625 µg/mL / inhibition at 1.25 µg/mL / inhibition at 2.5 µg/mL / inhibition at 5 µg/mL / inhibition at 10 µg/mL / inhibition at 100 µg/mL: read-out: Growth inhibition rate
Procedure: 10.4 g of RPMI1640 (manufactured by SAFC Biosciences) were dissolved in 900 mL of distilled water, and 34.53 g of a 0.165 M MOPS buffer (manufactured by DOJINDO LABORATORIES) were added and dissolved by stirring.
Dermatophytes (Trichopyton mentagrophytes (ATCC18748)) were inoculated into a 1/10 Sabouraud Dextrose agar medium (manufactured by DIFCO) and cultured at 28° C. for 14 days, and then a conidial suspension was prepared using 0.1% Tween80-including physiological saline. The suspension was filtered through gauze, and the number of the conidia was counted using a hemocytometer and then adjusted to 2.5×10^5/mL with the RPMI1640 medium. The resultant suspension was used as an inoculum.
Compound 5 and clotrimazole were diluted with the RPMI1640 medium to prepare 0.3125, 0.625, 1.25, 2.5, 5, 10, 20, and 200 μg/mL diluted solutions. The diluted solutions having different concentrations were dispensed into a 96-well flat-bottom microplate in an amount of 100 μL per well, and 80 μL of the inoculum and 20 μL of an Alamar Blue solution (manufactured by Nalgene) were further added thereto. Further, 80 μL of the inoculum and 20 μL of the Alamar Blue solution were added to 100 μL of the RPMI1640 medium in growth control wells, and 20 μL of the Alamar Blue solution was added to 180 μL of the RPMI1640 medium in negative control wells. The microplate was placed in a chamber in which the humidity was kept constant, and culture was started at 27° C., and the cells were observed every 24 hours. 120 hours from beginning of culture, i.e., when the growth control became obviously red (reduced form), absorbance measurement at 570 nm was performed using a microplate reader (SPECTRAMAX 250, manufactured by Molecular Device).
The test compounds were tested at the respective concentrations in triplicate. The growth inhibition rate (%) of each of the test compound-added groups was determined by the following equation based on a value calculated by subtracting an average absorbance value of the negative control from an average absorbance value of the growth control and the test compound-added wells. Further, […] (minimum inhibitory concentration; the minimum concentration at which the growth inhibition rate is 80% or more) was calculated from the growth inhibition rate of each test compound. Growth inhibition rate (%)=[1−(average absorbance value in test compound-added wells-average absorbance value of negative control)/(average absorbance value of growth control-average absorbance value of negative control)]×100
Compound 1, Compounds 3 to 6, Compound 40, Compound 41, triphenylmethylamine, triphenylmethanol, triphenylmethane, aminodiphenylmethane, and clotrimazole were diluted with the RPMI1640 medium to prepare 0.3125, 0.625, 1.25, 2.5, 5, 10, 20, and 200 μg/mL diluted solutions. The diluted solutions having different concentrations were dispensed into a 96-well flat-bottom microplate in an amount of 100 μl, per well, and 80 μL of the inoculum and 20 μl, of an Alamar Blue solution (manufactured by Nalgene) were further added thereto. Further, 80 μl, of the inoculum and 20 μl, of the Alamar Blue solution were added to 100 μL of the RPMI1640 medium in growth control wells, and 20 μL of the Alamar Blue solution was added to 180 μL of the RPMI1640 medium in negative control wells. The microplate was placed in a chamber in which the humidity was kept constant, and then culture was started at 27° C., and the cells were observed every 24 hours. 120 hours from beginning of culture, i.e., when the growth control became obviously red (reduced form), absorbance measurement at 570 nm was performed using a microplate reader (SPECTRAMAX 250, manufactured by Molecular Device).
The test compounds were tested at the respective concentrations in triplicate. […]

[2] = tested on: normal human melanocytes; experiment: Melanin production inhibition test using cultured normal human melanocytes (14C-thiouracil incorporation); type: cell-based; conditions: for activity at 2 µM: addition amount 2.0 μM; for activity at 20 µM: treatment concentration 20 μM; for activity at 15 µM: treatment concentration 15 μM
Procedure: The inhibitory effect on melanin production of the melanin production inhibitor of the present invention can be measured using thiouracil which is incorporated specifically into cells in a melanin synthesis process in the cells. For example, the amount of melanin production can be measured by measuring an amount of thiouracil incorporated into cells by measuring an amount of radiation with radiolabeled thiouracil.
The inhibitory effect on melanin production of Compound 1 was evaluated using 2-thiouracil (^14C-labeled 2-thiouracil was used in this test) which is incorporated specifically into melanin in an intracellular melanin synthesis process. Complete medium for culture of melanocytes (manufactured by Kurabo Industries Ltd.) was added to 15 wells in a 24-well plate in an amount of 2 mL per well, and normal human melanocytes (manufactured by Kurabo Industries Ltd.) were seeded into the wells at a concentration of 1.5×10^4 cells/cm^2. The cells were cultured in a 5% carbon dioxide atmosphere at 37° C. for 24 hours. Thereafter, the medium in all the wells was exchanged under the following conditions: fresh complete medium for culture of melanocytes (control) was used in three wells; each of complete medium for culture of melanocytes, which including Compound 1 at concentrations of 1.0 μM, 2.0 μM, and 4.0 μM, was used in a total of nine wells including three wells for each concentration; and complete medium for culture of melanocytes, each of which including arbutin (positive control) known as a melanin production inhibitor at a concentration of 0.5 mM (500 μM), was used in the other three wells. Further, 2-[2-^14C]thiouracil (^14C-labeled thiouracil) was added to each of these 15 wells at 0.25×10^−6 Ci (curie). Then, the cells were cultured for further 3 days under the same conditions as the above. After the completion of culture, the culture medium was removed from the wells, and the cells were washed with phosphate buffered physiological saline (PBS) and then separated from the bottoms of the wells with medium including trypsin and EDTA to prepare cell suspensions, followed by centrifugation to collect the cells. The number of the cells was counted using a hemocytometer. Thereafter, the amounts of ^14C-thiouracil in the cells collected from each well (0.25×10^−6 Ci) were measured using a liquid scintillation counter (ALOKA CO., LTD.). The percentages of an amount of radioactivity in the cells cultured in the medium including the test substances with respect to an amount of radioactivity in the cells collected from the well of the control were calculated as amounts of melanin (%). That is, as the amount of radioactivity incorporated into the cells is smaller, the amount of melanin is evaluated to be smaller, i.e., the melanin inhibition effect of the component added is evaluated to be larger.
Inhibitory effects on melanin production of Compounds 2 to 39 (however, the effects of Compound 9 and 15 were not measured) were examined in the same procedure as in Test Example 1.
These were examined in the same procedure as in Test Example 1.
Further, the results of melanin production inhibition by treatment with the respective test compounds, determined in the same procedure as in Test Example 1, are also shown in the table.

[3] = minimum concentration at which the growth inhibition rate is 80% or more
[4] = Homo sapiens, Melanocyte, Table 7, treatment concentration 4 μM, read-out: Amount of melanin
[5] = Homo sapiens, Melanocyte, Table 7, read-out: Amount of melanin

MIC80 [1, 3]: > 100 µg/mL
Compound: NC(c1ccccc1)c1ccccc1 [Aminodiphenylmethane]
growth inhibitory effect on Trichopyton mentagrophytes (in words) [1]: no growth inhibitory effect | activity at 40 µM ([2]; Homo sapiens, Melanocyte, Table 3, addition amount 40 μM, control = 100%): 36.6 ± 12.8% | activity at 50 µM ([2]; Homo sapiens, Melanocyte, Table 7, treatment concentration 50 μM, read-out: Amount of melanin): 28.8 ± 2.03%

MIC80 [1, 3]: 0.625 µg/mL (≈ 1.81 µM)
Compound: Clc1ccccc1C(c1ccccc1)(c1ccccc1)n1ccnc1 [Clotrimazole, clotrimazole, reference compound]
inhibition at 0.1563 µg/mL ([1]; concentration 0.1563 μg/mL, 120 hours): 27% | inhibition at 0.3125 µg/mL ([1]; concentration 0.3125 μg/mL, 120 hours): 53% | inhibition at 0.625 µg/mL ([1]; concentration 0.6250 μg/mL, 120 hours): 82.5% | inhibition at 1.25 µg/mL ([1]; concentration 1.2500 μg/mL, 120 hours): 92.2% | inhibition at 2.5 µg/mL ([1]; concentration 2.5000 μg/mL, 120 hours): 93.4% | inhibition at 5 µg/mL ([1]; concentration 5.0000 μg/mL, 120 hours): 85.4% | inhibition at 10 µg/mL ([1]; concentration 10.0000 μg/mL, 120 hours): 92.2% | inhibition at 100 µg/mL ([1]; concentration 100.0000 μg/mL, 120 hours): 88.9% | activity at 2.5 µM ([2]; Homo sapiens, Melanocyte, Table 7, treatment concentration 2.5 μM, read-out: Amount of melanin): 23.2% | Amount of melanin ([2]; Table 7, treatment concentration 2.5 μM): 23.2 ± 2.03 %/control

MIC80 [1, 3]: 0.625 µg/mL (≈ 2.01 µM)
Compound: c1ccc(C(c2ccccc2)(c2ccccc2)n2ccnc2)cc1 [Compound 1, 1-(triphenylmethyl)imidazole]
inhibitory effect of melanin production relative to that of arbutin ([2]; 1.0 μM Compound 1 compared with 0.5 mM arbutin): ≥ 100 times | activity at 1 µM ([2]; Homo sapiens, Melanocyte, addition amount 1.0 μM, control = 100%, mean ± SD of three samples): 63.8 ± 3.6% | activity at 2 µM ([2]; Homo sapiens, Melanocyte, control = 100%, mean ± SD of three samples): 37 ± 5.3% | activity at 4 µM ([2]; Homo sapiens, Melanocyte, addition amount 4.0 μM, control = 100%, mean ± SD of three samples): 29.2 ± 2.9% | activity at 4 µM [2, 4]: 29.5 ± 2.5%

Compound: c1ccc(C(c2ccccc2)(c2ccccc2)N2CCCCC2)cc1 [Compound 5, 1-(triphenylmethyl)piperidine]
inhibition at 0.1563 µg/mL ([1]; 120 h): -4.5% | inhibition at 0.3125 µg/mL ([1]; 120 h): 8% | inhibition at 0.625 µg/mL ([1]; 120 h): -2.7% | inhibition at 1.25 µg/mL ([1]; 120 h): 3.1% | inhibition at 2.5 µg/mL ([1]; 120 h): -4.5% | inhibition at 5 µg/mL ([1]; 120 h): -17.5% | inhibition at 10 µg/mL ([1]; 120 h): -14.4% | inhibition at 100 µg/mL ([1]; 120 h): 13.2% | MIC80 [1]: > 100 µg/mL | activity at 1.5 µM ([2]; Homo sapiens, Melanocyte, Table 2, addition amount 1.5 μM, control = 100%): 37.7 ± 0.8% | activity at 4 µM [2, 4]: 16.8 ± 0.96%

Compound: c1ccc(C(c2ccccc2)(c2ccccc2)N2CCCC2)cc1 [Compound 6, 1-(triphenylmethyl)pyrrolidine]
growth inhibitory effect on Trichopyton mentagrophytes (in words) [1]: no growth inhibitory effect | MIC80 [1]: > 100 µg/mL | activity at 2 µM ([2]; Homo sapiens, Melanocyte, Table 2, control = 100%): 32.6 ± 4.1% | activity at 4 µM [2, 4]: 17.2 ± 0.8%

MIC80 Concentration [1, 3]: 100.0000 µg/mL (≈ 471 µM) | MIC80 [1, 3]: 100 µg/mL (≈ 471 µM)
Compound: Cc1ccc(C(O)c2ccc(C)cc2)cc1 [Compound 14, [bis(4-methylphenyl)]methanol]
activity at 25 µM ([2]; Homo sapiens, Melanocyte, Table 2, addition amount 25 μM, control = 100%): 44.6 ± 5.6% | activity at 40 µM ([2]; Homo sapiens, Melanocyte, Table 7, treatment concentration 40 μM, read-out: Amount of melanin): 37.9 ± 1.39%

MIC80 [1, 3]: 10 µg/mL (≈ 32.1 µM)
Compound: c1ccc(C(c2ccccc2)(c2ccncc2)n2ccnc2)cc1 [Compound 40, 1-[(diphenylpyridyl)methyl]imidazole]
activity at 20 µM [2, 5]: 44.7 ± 4.2%

MIC80 [1, 3]: 5 µg/mL (≈ 19.1 µM)
Compound: Cc1ccc(C(c2ccc(C)cc2)n2ccnc2)cc1 [Compound 41]
activity at 15 µM [2, 5]: 34.1 ± 2.58%

Compound: c1ccc(C(c2ccccc2)c2ccccc2)cc1 [Triphenylmethane]
growth inhibitory effect on Trichopyton mentagrophytes (in words) [1]: no growth inhibitory effect | MIC80 [1]: > 100 µg/mL | activity at 15 µM [2, 5]: 32.2 ± 1.82% | activity at 10 µM ([2]; Homo sapiens, Melanocyte, Table 3, addition amount 10 μM, control = 100%): 42.3 ± 1.4%

MIC80 Concentration [1, 3]: 100.0000 µg/mL (≈ 384 µM) | MIC80 [1, 3]: 100 µg/mL (≈ 384 µM)
Compound: OC(c1ccccc1)(c1ccccc1)c1ccccc1 [Triphenylmethanol]
activity at 7.5 µM ([2]; Homo sapiens, Melanocyte, Table 3, addition amount 7.5 μM, control = 100%): 41.3 ± 2.8% | activity at 15 µM [2, 5]: 31.6 ± 2.39%

MIC80 [1, 3]: > 100 µg/mL
Compound: NC(c1ccccc1)(c1ccccc1)c1ccccc1 [Triphenylmethylamine]
growth inhibitory effect on Trichopyton mentagrophytes (in words) [1]: no growth inhibitory effect | activity at 12.5 µM ([2]; Homo sapiens, Melanocyte, Table 3, addition amount 12.5 μM, control = 100%): 57.3 ± 1.6% | activity at 20 µM [2, 5]: 23 ± 2.41%
